Fold change (FC), IC50 and Activity data for 15 compounds are collected here from ChEMBL document CHEMBL6071187, “Design, Synthesis, and Biological Evaluation of Selective TBL1X Degraders” (ACS Med Chem Lett, 2024).

Experiment [1] addresses T1, Protein cereblon/F-box-like/WD repeat-containing protein TBL1X (Homo sapiens) (UniProt Q96SW2+O60907). Nature of the experiment: PROTAC activity at CRBN/TBL1X in human Ri-1 cells assessed as TBL1X level relative to control at 0.008 uM incubated for 6 hrs by Western blotting analysis (reference value: 1). The experiment is classed as cell-based. On the technique in general: Immunoblotting shows a protein as a band on a membrane.

The target in experiment [2] is T1, Protein cereblon/F-box-like/WD repeat-containing protein TBL1X (Homo sapiens). Nature of the experiment: PROTAC activity at CRBN/TBL1X in human Ri-1 cells assessed as […] TBL1X level at 0.04 uM incubated for 6 hrs by Western blotting analysis (reference value: 1). The class given is cell-based.
For experiment [3] the target is unchanged. In words: PROTAC activity at CRBN/TBL1X in human Ri-1 cells assessed as […] TBL1X level at 0.2 uM incubated for 6 hrs by Western blotting analysis (reference value: 1). The class given is cell-based.
The target is the same in experiment [4]. In words: PROTAC activity at CRBN/TBL1X in human Ri-1 cells assessed as […] TBL1X level at 1 uM incubated for 6 hrs by Western blotting analysis (reference value: 1). The experiment is classed as cell-based.
Experiment [5] shares this target. Nature of the experiment: PROTAC activity at CRBN/TBL1X in human Ri-1 cells assessed as […] TBL1X level at 5 uM incubated for 6 hrs by Western blotting analysis (reference value: 1). The class given is cell-based.
A short description of experiment [6]: Cytotoxicity against human Ri-1 cells assessed as reduction in cell viability incubated for 72 hrs by MTS assay. The conditions noted are these: Ri-1, 72 h. The experiment is classed as functional, cell-based. For orientation: Tetrazolium dyes change colour on reduction, which living cells bring about.
The next experiment has as its system Pfeiffer. In words: Cytotoxicity against human Pfeiffer cells assessed as reduction in cell viability incubated for 72 hrs by MTS assay. The experiment is classed as functional, cell-based.
A further experiment has as its system Granta-519. Nature of the experiment: Cytotoxicity against human Granta-519 cells assessed as reduction in cell viability incubated for 72 hrs by MTS assay. The class given is functional, cell-based. To be noted: Granta-519, 72 h.
Experiment [7] concerns the target T1, Protein cereblon/F-box-like/WD repeat-containing protein TBL1X (Homo sapiens). In words: PROTAC activity at CRBN/TBL1X in human Ri-1 cells assessed as decrease in TBL1X level incubated for 6 hrs by Western blotting analysis. To be noted: dose 0.008-5 µM. The class given is cell-based.
Experiment [8] shares this target. In words: PROTAC activity at CRBN/TBL1X in human Ri-1 cells assessed as […] TBL1X level at 0.2 uM incubated for 6 hrs in presence of tega-vivint by Western blotting analysis (reference value: 1). The experiment is classed as cell-based.
For experiment [9] the target is unchanged. In words: PROTAC activity at CRBN/TBL1X in human Ri-1 cells assessed as […] TBL1X level at 0.2 uM incubated for 6 hrs in presence of pomalidomide by Western blotting analysis (reference value: 1). The experiment is classed as cell-based.
Experiment [10] shares this target. In words: PROTAC activity at CRBN/TBL1X in human Ri-1 cells assessed as […] TBL1X level at 0.2 uM incubated for 6 hrs in presence of MG-132 by Western blotting analysis (reference value: 1). The experiment is classed as cell-based.

T1 sequence (O60907 whole entry, looked up): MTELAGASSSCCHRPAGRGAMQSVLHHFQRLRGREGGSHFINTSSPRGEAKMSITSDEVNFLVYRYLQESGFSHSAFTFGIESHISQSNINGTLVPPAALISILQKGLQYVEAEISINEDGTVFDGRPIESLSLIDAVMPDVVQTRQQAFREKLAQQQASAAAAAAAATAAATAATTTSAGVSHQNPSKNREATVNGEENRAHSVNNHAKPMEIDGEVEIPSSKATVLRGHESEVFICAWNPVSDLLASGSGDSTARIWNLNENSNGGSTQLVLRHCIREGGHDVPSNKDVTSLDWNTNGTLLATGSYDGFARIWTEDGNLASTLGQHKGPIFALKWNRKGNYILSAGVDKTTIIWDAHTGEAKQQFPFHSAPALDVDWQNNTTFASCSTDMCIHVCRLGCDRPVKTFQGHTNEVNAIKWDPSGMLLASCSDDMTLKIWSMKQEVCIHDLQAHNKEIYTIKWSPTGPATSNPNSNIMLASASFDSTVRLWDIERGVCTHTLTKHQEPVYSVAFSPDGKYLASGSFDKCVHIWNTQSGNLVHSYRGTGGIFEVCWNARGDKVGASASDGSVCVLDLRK
T1 sequence (Q96SW2 whole entry, looked up): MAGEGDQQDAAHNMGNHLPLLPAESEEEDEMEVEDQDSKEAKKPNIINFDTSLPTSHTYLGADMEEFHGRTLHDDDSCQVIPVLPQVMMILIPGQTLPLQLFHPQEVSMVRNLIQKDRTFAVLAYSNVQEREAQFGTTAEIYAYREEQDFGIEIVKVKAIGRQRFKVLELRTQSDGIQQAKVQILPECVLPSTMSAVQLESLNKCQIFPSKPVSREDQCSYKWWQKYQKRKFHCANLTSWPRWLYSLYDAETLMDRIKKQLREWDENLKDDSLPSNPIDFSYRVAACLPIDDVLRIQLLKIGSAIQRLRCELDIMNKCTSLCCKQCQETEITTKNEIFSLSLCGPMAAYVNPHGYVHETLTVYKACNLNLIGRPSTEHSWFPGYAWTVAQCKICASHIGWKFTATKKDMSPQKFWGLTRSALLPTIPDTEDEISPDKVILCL

Consider `CC1CC(C)CN(S(=O)(=O)c2ccc3c(c2)C(=NO)c2cc(S(=O)(=O)N4CC(C)CC(C)C4)ccc2C3=NOCCCNC(=O)CCOCCNc2cccc3c2C(=O)N(C2CCC(=O)NC2=O)C3=O)C1` (configuration not stated), for which the fold change (FC) is 0.4 in [1]; 0.47 in experiment [2]; 0.51 in experiment [3]; 0.43 in experiment [4]; 0.48 in experiment [5]. Also, the concentration for half-maximal inhibition (IC50) in experiment [6] was determined as 1350 nM; with Pfeiffer, 554 nM; in the experiment with Granta-519 it was 1040 nM.
As for `CC1CC(C)CN(S(=O)(=O)c2ccc3c(c2)C(=NO)c2cc(S(=O)(=O)N4CC(C)CC(C)C4)ccc2C3=NOCCCNC(=O)CCNc2cccc3c2C(=O)N(C2CCC(=O)NC2=O)C3=O)C1` (configuration not stated), the fold change (FC) in experiment [1] worked out at 0.97; in [2] it was 0.56; in experiment [3], 0.41; in experiment [4], 0.5; in experiment [5], 0.54. Moreover, the IC50 came out at 651 nM in [6], 189 nM with Pfeiffer and 323 nM in the experiment with Granta-519. Moreover, the Activity result in experiment [7] was “Dose-Dependent Effect”.
Consider `C[C@@H]1C[C@H](C)CN(S(=O)(=O)c2ccc3c(c2)C(=NO)c2cc(S(=O)(=O)N4C[C@H](C)C[C@H](C)C4)ccc2C3=NO)C1`, for which the IC50 in experiment [6] was 86 nM; in the experiment on Pfeiffer it was 175 nM; in the experiment with Granta-519, 94.1 nM.
Regarding `CC1CC(C)CN(S(=O)(=O)c2ccc3c(c2)/C(=N/O)c2cc(S(=O)(=O)N4CCN(C(=O)CCCCNc5cccc6c5C(=O)N(C5CCC(=O)NC5=O)C6=O)CC4)ccc2/C3=N\O)C1` (configuration not stated), the fold change (FC) in [1] stood at 0.9; in [2] it was 0.94; in experiment [3], 1.02; in [4], 0.91; in experiment [5] it was 0.6. The IC50 in [6] worked out at 560 nM; in the experiment with Pfeiffer, 647 nM; in the experiment with Granta-519, 496 nM.
For the compound `CC1CC(C)CN(S(=O)(=O)c2ccc3c(c2)/C(=N\O)c2cc(S(=O)(=O)N4CCN(C(=O)CCOCCOCCOCCNc5cccc6c5C(=O)N(C5CCC(=O)NC5=O)C6=O)CC4)ccc2/C3=N\O)C1` (configuration not stated), the fold change (FC) amounted to 0.9 in experiment [1]; 1.02 in experiment [2]; 0.92 in [3]; 0.79 in experiment [4]; 0.97 in experiment [5]. Besides, the IC50 (in [6]; in the experiment with Pfeiffer; in the experiment on Granta-519) was more than 20000 nM throughout.
For the compound `CC1CC(C)CN(S(=O)(=O)c2ccc3c(c2)/C(=N/O)c2cc(S(=O)(=O)N4CCN(C(=O)CCCCCCCCCCNc5cccc6c5C(=O)N(C5CCC(=O)NC5=O)C6=O)CC4)ccc2/C3=N\O)C1` (configuration not stated), the fold change (FC) in experiment [1] came to 0.98; in experiment [2], 1.04; in experiment [3], 0.99; in experiment [4], 0.92; in [5], 1.08. The IC50 in [6] turned out to be 1160 nM; in the experiment with Pfeiffer, 2500 nM; with Granta-519, 1160 nM.
Take `CC1CC(C)CN(S(=O)(=O)c2ccc3c(c2)C(=NO)c2cc(S(=O)(=O)N4CC(C)CC(C)C4)ccc2C3=NOCCCNC(=O)CCOCCOCCOCCNc2cccc3c2C(=O)N(C2CCC(=O)NC2=O)C3=O)C1` (configuration not stated): the fold change (FC) in experiment [1] was 0.6; in experiment [2], 0.49; in [3], 0.46; in experiment [4], 0.59; in [5] it was 0.58. Also, the IC50 (in experiment [6]; in the experiment on Pfeiffer; with Granta-519) was more than 20000 nM in each case.
With `CC1CC(C)CN(S(=O)(=O)c2ccc3c(c2)C(=NO)c2cc(S(=O)(=O)N4CC(C)CC(C)C4)ccc2C3=NOCCCNC(=O)CCCCNc2cccc3c2C(=O)N(C2CCC(=O)NC2=O)C3=O)C1` (configuration not stated), the fold change (FC) in experiment [1] worked out at 0.4; in [2], 0.27; in experiment [3], 0.53; in [4] it was 0.61; in experiment [5], 1.46; in experiment [8] it was 0.87. For the same compound, the values for the fold change (FC) in experiment [9] and in experiment [10] were 0.82 and 0.92, respectively. Further, the IC50 in [6] came out at 795 nM; in the experiment with Pfeiffer it was 398 nM; in the experiment with Granta-519, 523 nM. In addition, the Activity entry in experiment [7] was “Dose-Dependent Effect”.
For the compound `CC1CC(C)CN(S(=O)(=O)c2ccc3c(c2)C(=NO)c2cc(S(=O)(=O)N4CC(C)CC(C)C4)ccc2C3=NOCCCNC(=O)CCOCCOCCNc2cccc3c2C(=O)N(C2CCC(=O)NC2=O)C3=O)C1` (configuration not stated), the fold change (FC) in experiment [1] is 0.37; in experiment [2], 0.35; in experiment [3], 0.63; in [4] it was 0.64; in experiment [5] it was 1.03. Moreover, the IC50 was more than 20000 nM in [6], 1880 nM in the experiment on Pfeiffer and more than 20000 nM in the experiment on Granta-519.
Regarding `CC1CC(C)CN(S(=O)(=O)c2ccc3c(c2)/C(=N\O)c2cc(S(=O)(=O)N4CCN(C(=O)CCOCCOCCNc5cccc6c5C(=O)N(C5CCC(=O)NC5=O)C6=O)CC4)ccc2/C3=N\O)C1` (configuration not stated), the fold change (FC) worked out at 1.07 in [1]; 0.99 in [2]; 0.94 in experiment [3]; 1.06 in experiment [4]; 0.97 in experiment [5]. Besides, the IC50 (in experiment [6]; with Pfeiffer; in the experiment on Granta-519) was more than 20000 nM in each case.
Regarding `CC1CC(C)CN(S(=O)(=O)c2ccc3c(c2)/C(=N/O)c2cc(S(=O)(=O)N4CCN(C(=O)CCOCCNc5cccc6c5C(=O)N(C5CCC(=O)NC5=O)C6=O)CC4)ccc2/C3=N\O)C1` (configuration not stated), the fold change (FC) in experiment [1] was found to be 0.91; in experiment [2] it was 1.11; in experiment [3] it was 1.59; in [4], 1.15; in experiment [5], 0.79. Moreover, the IC50 (in experiment [6]; in the experiment on Pfeiffer; in the experiment with Granta-519) was more than 20000 nM in each case.
Consider `CC1CC(C)CN(S(=O)(=O)c2ccc3c(c2)C(=NO)c2cc(S(=O)(=O)N4CC(C)CC(C)C4)ccc2C3=NOCCCNC(=O)CCCCCCNc2cccc3c2C(=O)N(C2CCC(=O)NC2=O)C3=O)C1` (configuration not stated), for which the fold change (FC) in [1] amounted to 0.8; in [2], 0.74; in [3] it was 0.61; in experiment [4] it was 0.74; in experiment [5], 0.44. Moreover, the IC50 in experiment [6] was 929 nM; in the experiment with Pfeiffer, 355 nM; in the experiment on Granta-519, 530 nM. For the same compound, the Activity entry in experiment [7] is “Dose-Dependent Effect”.
Regarding `CC1CC(C)CN(S(=O)(=O)c2ccc3c(c2)/C(=N/O)c2cc(S(=O)(=O)N4CCN(C(=O)CCCCCCNc5cccc6c5C(=O)N(C5CCC(=O)NC5=O)C6=O)CC4)ccc2/C3=N\O)C1` (configuration not stated), the fold change (FC) came out at 0.91 in [1]; 1.03 in experiment [2]; 1.16 in [3]; 1.36 in experiment [4]; 1.51 in experiment [5]. In addition, the 50% inhibitory concentration (IC50) in experiment [6] worked out at 605 nM; in the experiment with Pfeiffer, 343 nM; with Granta-519, 439 nM.
As to `CC1CC(C)CN(S(=O)(=O)c2ccc3c(c2)C(=NO)c2cc(S(=O)(=O)N4CC(C)CC(C)C4)ccc2C3=NOCCCNC(=O)CCCCCCCCCCNc2cccc3c2C(=O)N(C2CCC(=O)NC2=O)C3=O)C1` (configuration not stated), the fold change (FC) came to 0.64 in experiment [1]; 0.43 in experiment [2]; 0.44 in [3]; 0.18 in [4]; 0.43 in [5]. Further, the IC50 (in experiment [6]; with Pfeiffer; in the experiment with Granta-519) was more than 20000 nM each time. Also, the Activity result in experiment [7] was “Dose-Dependent Effect”.
For the compound `CC1CC(C)CN(S(=O)(=O)c2ccc3c(c2)/C(=N/O)c2cc(S(=O)(=O)N4CCN(C(=O)CCNc5cccc6c5C(=O)N(C5CCC(=O)NC5=O)C6=O)CC4)ccc2/C3=N\O)C1` (configuration not stated), the fold change (FC) in experiment [1] came to 1; in experiment [2], 1.3; in experiment [3] it was 1.28; in [4], 1.23; in [5], 1.34. Also, the IC50 in [6] turned out to be 797 nM; in the experiment with Pfeiffer, 564 nM; with Granta-519 it was 399 nM.

In general, IC50 refers to the concentration needed to halve the response being measured.
